Tests used:
cucumber downy mildew = test: protectant activity in vivo against cucumber downy mildew
carmine spider mite = test: bioactivity test against carmine spider mite, airbrush spray; format: in vivo; conditions: for control against carmine spider mite: mortality after 72 hrs
Outline: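 Broadbean seedlings infested with adult mites were sprayed with compound (acetone/methanol stock diluted in 0.1% Tween 80 water) by airbrush at 0.7 kg/cm^2, 0.5 ml. Three replicates were run. Mortality was scored after 72 hrs.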

corn rust = test: protectant activity in vivo against corn rust
[1] = system: Green peach aphids (Myzus Persicae Sulzer); test: bioactivity test against green peach aphid, airbrush foliar spray; format: in vivo; conditions: for control (test results against green peach aphid): death rate after 48 hrs
Outline: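 Death rate was scored at 48 hrs, held at 25±1 C and 60±5% RH, following airbrush foliar spray (0.5 mL, 10 psi) onto cabbage leaf discs bearing about 15-30 aphids. Test solutions: compound dissolved in 1:1 acetone:methanol, brought to concentration with 0.1% tween 80 water.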

armyworm = test: bioactivity test against armyworm, airbrush spray; format: in vivo
wheat powdery mildew = test: protectant activity in vivo against wheat powdery mildew
Diamond back moth = test: insecticidal activity against diamond back moth, airbrush spray; format: in vivo
Outline: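 Airbrush leaf-disc spray test: both faces of 2 cm cabbage discs received 0.5 ml of test solution at 0.7 kg/cm^2. Solutions were made in acetone:methanol (1:1) and brought to concentration with 0.1% Tween 80 in water. Ten second-instar larvae per disc, triplicates, were held at 25° C and 60˜70% R.H., with mortality recorded at 72 hrs.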

`CCc1ncnc(NCCc2ccc(Oc3ccc(Cl)cc3)c(OC)c2)c1Cl` [II-1965] was tested, and the “protectant activity against cucumber downy mildew in vivo” value (cucumber downy mildew; 400 ppm) was 100%, the “control against carmine spider mite” value (carmine spider mite; 100 ppm) was 100% and the “control against carmine spider mite” value (carmine spider mite; 600 ppm) was 100%. The “protectant activity against corn rust in vivo” value (corn rust; 400 ppm) was 100%, the “Insecticidal activity against peach aphid (%)” value ([1]; 10 mg/L, contrastive test) was 100% and the “Insecticidal activity against peach aphid (%)” value ([1]; 100 mg/L, contrastive test) was 100%. The “Insecticidal activity against peach aphid (%)” value ([1]; 600 mg/L, contrastive test) was 100%, the “control (test results against green peach aphid)” value ([1]; 10 ppm) was 100% and the “control (test results against green peach aphid)” value ([1]; 100 ppm) was 100%. For the same compound, the “control (test results against green peach aphid)” value ([1]; 600 ppm) was 100%, the “control (test results against armyworm)” value (armyworm; 600 ppm, mortality after 72 h) was 100% and the “protectant activity against wheat powdery mildew in vivo” value (wheat powdery mildew; 400 ppm) was 100%. The “control (test results against diamond back moth)” value (Diamond back moth; 600 ppm, mortality after 72 hrs) was 100%.

`CCc1ncnc(NCc2ccc(Oc3c(Cl)cc([N+](=O)[O-])cc3Cl)cc2)c1Cl` [CK66, reference compound] showed a pest or weed control at 400 µg/mL (cucumber downy mildew; Cucumis sativus, 168 h, read-out: control effect against cucumber downy mildew (%), 400 mg/L, protectant activity) of 0%, a pest or weed control at 600 µg/mL (carmine spider mite; Tetranychus cinnabarinus, 72 h, 600 mg/L, contrastive test, read-out: Insecticidal activity against carmine spider mite (% )) of 0% and a pest or weed control at 400 µg/mL (corn rust; Zea mays, 168 h, read-out: control effect against corn rust (%), 400 mg/L, protectant activity) of 0%. For the same compound, the pest or weed control at 600 µg/mL ([1]; Myzus persicae, foliar, 48 h, 600 mg/L, contrastive test, read-out: Insecticidal activity against peach aphid (%)) was 0%, the pest or weed control at 600 µg/mL (armyworm; 72 h, 600 mg/L, read-out: Insecticidal activity against armyworm (%)) was 0% and the pest or weed control at 400 µg/mL (wheat powdery mildew; Triticum aestivum, 168 h, read-out: control effect against wheat powdery mildew (%), 400 mg/L, protectant activity) was 0%. For the same compound, the pest or weed control at 600 µg/mL (Diamond back moth; 72 h, 600 mg/L) was 0%.

For `CCc1ncnc(NC(=O)Cc2ccc(Oc3ncc(C(F)(F)F)cc3Cl)cc2)c1Cl` [CK16, reference compound], the “control effect against cucumber downy mildew (%)” value (cucumber downy mildew; 400 mg/L, protectant activity) was 85%, the “Insecticidal activity against carmine spider mite (% )” value (carmine spider mite; 600 mg/L, contrastive test) was 0% and the “control effect against corn rust (%)” value (corn rust; 400 mg/L, protectant activity) was 0%. The “Insecticidal activity against peach aphid (%)” value ([1]; 600 mg/L, contrastive test) was 64%, the “Insecticidal activity against armyworm (%)” value (armyworm; 600 mg/L) was 0% and the “control effect against wheat powdery mildew (%)” value (wheat powdery mildew; 400 mg/L, protectant activity) was 70%. The “Insecticidal activity against diamond back moth (%)” value (Diamond back moth; 600 mg/L) was 0%.

— patent publication US9770026B2, “Substituted pyrimidine compound and uses thereof” (Shenyang Sinochem Agrochemicals R&D Co., Ltd., priority 2012, dated 2017)
